Data reported in patent US12678472B2, “Method for selective recovery of hydrophobic compounds” (priority 2019, dated 2026).

Tests used:
[1] = Capture of target molecule from solution by insoluble cross-linked cyclodextrin polymer (batch slurry, supernatant measured after filtration); details: Example 9: 2 mg/mL CBD in 1:1 ethanol:water, 10:1 polymer:CBD
Method: A standard protocol was followed in all Examples with the variances from the standard protocol as described in each Example. The standard protocol included a plurality of steps. A mass of CBD was dissolved in ethanol to form a stock solution. A reference sample of the stock solution was diluted with ethanol to obtain a target CBD or other target molecule concentration for a reference measurement. A reaction sample was taken from the remaining stock solution. A cross-linked polysaccharide was combined with the reaction sample in a ratio relative to the CBD or other target molecule concentration present in the reaction sample (by mass) as specified in Examples. The cross-linked polymer is HDI-linked cyclodextrin prepared with a ratio of 8:1 HDI to cyclodextrin.
Water is combined with the reaction sample until the reaction sample reaches a target CBD or other target molecule concentration, and a target ethanol to water ratio. The reaction mixture including the water is filtered at a cutoff size of between 75 μm to 4,000 μm aperture size, or exposed to a magnetic field with a neodymium magnet through the wall of a flask, to retrieve the cross-linked polymer bound with CBD or other target molecule concentration. Once retrieved, the cross-linked polymer is flushed with a dissociation solvent for dissolving the target molecule. […]

[2] = Solubility of CBD in ethanol:water mixtures

Question: Which “time to capture plateau” value [1] does the source give for `C=C(C)[C@@H]1CCC(C)=C[C@H]1c1c(O)cc(CCCCC)cc1O` [CBD, cannabidiol] here?
Answer: about 5 minutes

Question: And the “solubility of CBD” value ([2]; 40:60 EtOH:H2O, 2 mg/mL CBD)?
Answer: not fully dissolved

Question: What about the “solubility of CBD” value ([2]; 45:56 EtOH:H2O, 2 mg/mL CBD) of the same molecule?
Answer: cloudy

Question: And the “solubility of CBD” value ([2]; 50:50 EtOH:H2O, EtOH added first then H2O)?
Answer: dissolves

Question: And the “solubility of CBD” value ([2]; Example 13: 6 mg/mL in 1:1 EtOH:H2O with sonication and heating)?
Answer: did not dissolve

Question: What about the “percent of the CBD not in solution” value ([2]; Example 17: CBD in 3:7 EtOH:H2O) of the same molecule?
Answer: Ten
